Assay results reported in patent publication US20250270173A1, “PYRIDINE DERIVATIVES FOR TREATING PSYCHIATRIC DISORDERS” (GILGAMESH PHARMACEUTICALS, INC., priority 2022, published 2025).
Like-named read-outs stand apart in the source and are kept apart here.

How the values were obtained:
[1] = target: T1, 5-HT2A receptor (Homo sapiens (Human), UniProt P28223); assay: 5-HT2A receptor radioligand binding with [3H]ketanserin
[2] = system: C57BL/6 mice; assay: Automated (video tracking) head twitch response (HTR) assay in mice; type: in vivo; settings: SC; for ED50: Mus musculus, 20 min, 20 min recording, read-out: ED50; for Most Efficacious Dose; mg/kg: dose giving the most HTR
Protocol: Disclosed compounds were tested for their ability to induce a head twitch response (HTR) in mice using an automated video tracking procedure, with the results summarized in Table 5. […] The phenyl Compound 44 was substantially more efficacious at inducing HTR than its pyridine counterpart Compound 29, in agreement with the generally lower maximal efficacy of the disclosed pyridine compounds for signaling through 5-HT2A receptors.
Animals. Adult male C57BL/6 mice aged 8-10 weeks (body weight 20-25 g) were used in these experiments. Animals were housed under controlled temperatures and 12-hour light/dark cycles (lights on between 07:00-19:00 h), with ad libitum food and water. The protocol was approved by the Institutional Animal Care and Use Committee at the study site. This study was carried out in strict accordance with the recommendations in the Guide for the Care and Use of Laboratory Animals of the National Institutes of Health. All efforts were made to minimize suffering.
Drugs and Drug Administration. […] was commercially obtained. Disclosed compounds were synthesized as described above. They were administered subcutaneously (SC) dissolved in saline (or saline acidified with 1-2 molar equivalents HCl to form the salt in situ for freebase compounds) at a volume of 10 mL/kg. Five doses were tested, with N=5-8 animals/group. Doses were calculated on the basis of the freebase, except for DOI, which was calculated based on the HCl salt.
Procedure. Mice were administered one dose of the drug and immediately placed into a small open field for behavioral observation. High-speed video of animals' behavior was captured continuously for 20 min. Video recordings were imported into an image processing software, which detects multiple points of interest on each animal's body, including the left and right ear. HTR events were defined as periodic deviations of ear locations from temporally averaged ear locations. Predefined thresholds for magnitude and frequency of location deviations were used to filter […] events from random head movements. The method was validated by comparing detected events with manual (human) observations and found to have an accuracy >95%. The total number of HTR events counted during the 20-min recording were determined for each animal at each dose.
Statistical Analysis. Analysis was performed using GraphPad Prism 9. Dose-response curves were fit via non-linear regression using the Gaussian 2020 function in Prism in order to determine the ED50 and Emax for each compound.

[3] = target: T1, 5-HT2A receptor; assay: FLIPR Ca2+ flux functional assay at 5-HT2A (HEK293); settings: for 5-HT2A % Act @ Max Conc.: HEK293, at max concentration
[4] = target: 5-HT2B receptor (Homo sapiens (Human), UniProt P41595); assay: FLIPR Ca2+ flux functional assay at 5-HT2B (HEK293); settings: for 5-HT2B % Act @ Max Conc.: HEK293, at max concentration
[5] = target: 5-HT1A receptor (Homo sapiens (Human), UniProt P08908); assay: FLIPR Ca2+ flux functional assay at 5-HT1A (CHO cells); settings: for 5-HT1A % Act @ Max Conc.: at max concentration
[6] = target: human 5-HT2C receptor (Homo sapiens (Human), UniProt P28335); assay: FLIPR Ca2+ flux functional assay at 5-HT2C (Eurofins DiscoverX); type: cell-based; settings: for 5-HT2C % Act @ Max Conc.: Ca2+ flux, human 5-HT2C, at max concentration
Protocol: Functional Assays at 5-HT2C Receptors. […] Probenecid was prepared fresh. Cells were loaded with dye prior to testing and incubated at 37° C. for 30-60 minutes. After dye loading, cells were removed from the incubator and 10 μL HBSS/20 mM Hepes was added. 3× vehicle was included in the assay buffer. Cells were incubated for 30 mins at room temperature in the dark to equilibrate plate temperature. Intermediate dilution of sample stocks was performed to generate 4× sample in assay buffer. Compound agonist activity was measured on a FLIPR Tetra (MDS). Calcium mobilization was monitored for 2 minutes and 10 μL 4× sample in HBSS/20 mM Hepes was added to the cells 5 seconds into the assay.

[7] = read-out: Ki at 5-HT2A Receptor (nM) ([3H]ketanserin), HEK293 stable cell line, 1 nM [3H]ketanserin, 1 h, 25 °C
[8] = read-out: 5-HT2A EC50, Ca2+ flux, HEK293
[9] = read-out: 5-HT2B EC50, Ca2+ flux, HEK293

5-HT2B receptor, sequence (P41595 whole entry, looked up): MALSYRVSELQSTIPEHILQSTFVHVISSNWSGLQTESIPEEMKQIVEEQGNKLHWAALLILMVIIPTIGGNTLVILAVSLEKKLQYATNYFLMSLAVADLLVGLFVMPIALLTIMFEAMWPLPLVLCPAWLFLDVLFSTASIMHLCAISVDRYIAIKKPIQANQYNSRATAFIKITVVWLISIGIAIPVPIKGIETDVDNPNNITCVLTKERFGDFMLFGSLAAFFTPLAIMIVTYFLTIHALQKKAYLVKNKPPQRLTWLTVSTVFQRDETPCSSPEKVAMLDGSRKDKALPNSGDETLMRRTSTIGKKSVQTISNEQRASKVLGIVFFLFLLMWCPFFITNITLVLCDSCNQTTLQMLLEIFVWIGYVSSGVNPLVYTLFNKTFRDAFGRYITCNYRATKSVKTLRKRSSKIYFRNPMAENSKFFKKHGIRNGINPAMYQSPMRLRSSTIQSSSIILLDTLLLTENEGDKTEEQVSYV
human 5-HT2C receptor, sequence (P28335 whole entry, looked up): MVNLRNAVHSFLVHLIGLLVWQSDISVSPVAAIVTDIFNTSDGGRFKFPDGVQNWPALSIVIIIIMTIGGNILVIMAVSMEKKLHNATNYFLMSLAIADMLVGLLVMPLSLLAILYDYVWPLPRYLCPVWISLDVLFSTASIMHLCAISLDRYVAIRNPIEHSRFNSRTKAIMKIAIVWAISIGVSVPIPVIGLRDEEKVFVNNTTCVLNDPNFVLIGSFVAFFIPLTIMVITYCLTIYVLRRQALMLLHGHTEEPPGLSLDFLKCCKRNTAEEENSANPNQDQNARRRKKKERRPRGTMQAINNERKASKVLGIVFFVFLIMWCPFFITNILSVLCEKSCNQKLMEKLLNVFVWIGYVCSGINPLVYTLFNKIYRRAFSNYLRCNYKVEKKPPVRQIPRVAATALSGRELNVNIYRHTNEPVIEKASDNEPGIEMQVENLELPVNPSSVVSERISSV

SMILES	Ki [1, 7] [nM]	ED50 [2] [mg/kg]	Emax (HTR counts/20 min) [2] [HTR counts/20 min]	# HTR/20 min at Most Efficacious Dose [2] [HTR/20 min]	Most Efficacious Dose; mg/kg [2]	EC50 [3] [µM]	5-HT2A % Act @ Max Conc. ([3]; Ca2+ flux) [%]	EC50 [4] [µM]	5-HT2B % Act @ Max Conc. ([4]; Ca2+ flux) [%]	EC50 [5] [µM]	5-HT1A % Act @ Max Conc. ([5]; Ca2+ flux, CHO cells) [%]	EC50 [3, 8] [µM]	EC50 [4, 9] [µM]	EC50 ([5]; read-out: 5-HT1A EC50, Ca2+ flux, CHO cells) [µM]	EC50 [6] [µM]	5-HT2C % Act @ Max Conc. [6] [%]	Ki [1] [nM]
CCCc1cc(OC)c(CCN)nc1OC [Compound 36, 2-(3,6-dimethoxy-5-propylpyridin-2-yl)ethan-1-amine]	35.4	0.972	48.79	48.12	(10) mg/kg	0.00414	88.19	0.184	21.53	> 100	3.03						
COc1cc(C2CC2)c(OC)nc1CC(C)N (stereo not drawn) [Compound 27, 1-(5-cyclopropyl-3,6-dimethoxypyridin-2-yl)propan-2-amine]	304					0.015	104.13	0.246	61.18	> 100	0.49						
COc1cc(Cl)c(OC)nc1CC(C)N (stereo not drawn) [Compound 17, 1-(5-chloro-3,6-dimethoxypyridin-2-yl)propan-2-amine]	404					0.00627	99.4	0.54	70.03	> 100	0.79						
CCCCCc1cc(OC)c(CC(C)N)nc1OC (stereo not drawn) [Compound 4, 1-(3,6-dimethoxy-5-pentylpyridin-2-yl)propan-2-amine]	26.2					0.0154	132.71	> 10	14.53	48.1	67.31						
COc1cc(CCCC(F)(F)F)c(OC)nc1CCN [Compound 33, 2-(3,6-dimethoxy-5-(4,4,4-trifluorobutyl)pyridin-2-yl)ethan-1-amine]	104					0.0457	68.5	> 10	1.05	> 100	10.46						
CCc1cc(OC)c(CC(C)N)nc1OC (stereo not drawn) [Compound 20, 1-(5-ethyl-3,6-dimethoxypyridin-2-yl)propan-2-amine]	322					0.00579	98.11	0.293	75.75	> 100	0.9						
COc1cc(Cl)c(OC)nc1CCN [Compound 16, 2-(5-chloro-3,6-dimethoxypyridin-2-yl)ethan-1-amine]	264					0.0201	97.33	1.4	38.95	> 100	5.31						
COc1cc(CCN)c(OC)cc1Br [Compound 2C-B, 2C-B, reference compound]	8.25						99.7		73.3		47.8	0.000478	0.02	33.1			
COc1ccccc1CNCCc1nc(OC)c(Br)cc1OC [Compound 25, 2-(5-bromo-3,6-dimethoxypyridin-2-yl)-N-(2-methoxybenzyl)ethan-1-amine]	0.35					0.00159	93.57	> 10	8.22	> 100	21.35						
COc1cc(Br)c(OC)nc1CCN [Compound 9, 2-(5-bromo-3,6-dimethoxypyridin-2-yl)ethan-1-amine]		1.38	49.65	45.75	(3.2) mg/kg	0.00981	96.84	0.764	38.01	> 100	2.11				0.0307	95.94	
COc1cc(CCCCCF)c(OC)nc1CCN [Compound 34, 2-(5-(5-fluoropentyl)-3,6-dimethoxypyridin-2-yl)ethan-1-amine]	10.2					0.0135	64.66	> 10	7.93	> 100	4.8						
COc1cc(CCCCC(F)(F)F)c(OC)nc1CCN [Compound 35, 2-(3,6-dimethoxy-5-(5,5,5-trifluoropentyl)pyridin-2-yl)ethan-1-amine]						0.0385	48.95	0.341	32.44	> 100	41.47						13.6
CCc1cc(OC)c(CCN)nc1OC [Compound 19, 2-(5-ethyl-3,6-dimethoxypyridin-2-yl)ethan-1-amine]	111					0.0203	96.03	0.218	20.07	12	1.25						
CCc1cc(OC)c(CCN)cc1OC [Compound 2C-E, 2C-E, reference compound]	16.7						105		66.2		17.9	0.000747	0.0297				
CCCCCCc1cc(OC)c(CCN)cc1OC [Compound 44, reference compound]		1.36	57.87	58.0	(3.2) mg/kg		90.51		46.79		183.21					82.62	
